Experimental data published in article PMC10788915, “Fragment Merging, Growing, and Linking Identify New Trypanothione Reductase Inhibitors for Leishmaniasis” (Journal of Medicinal Chemistry, 2024).

Legend:
[1] = system: human THP-1-derived macrophages; experiment: Cytotoxicity assay on human THP-1-derived macrophages (MTT); assay type: cell-based
Procedure: (§1) To assess the cytotoxicity of compounds on mammalian macrophages, we tested all the compounds against both human leukemia monocyte cell line (THP-1 cells, ATCC) differentiated into macrophages by treatment with 40 ng/mL of phorbol myristate acetate (PMA; Sigma) for 48 h and peritoneal exudate macrophages harvested from Balb/c mice. […] Cell viability was evaluated using the MTT assay, and the concentration of the compound that produced a 50% reduction of cell viability in treated culture cells with respect to untreated ones (CC50) was determined by GraphPad Prism 5.0 (GraphPad Software Inc., San Diego, USA). […] The selectivity index for each compound was calculated as the ratio of cytotoxicity (CC50) in macrophages cells to activity (IC50) against Leishmania axenic amastigotes. The experiments were performed in triplicate, and two independent experiments were conducted.

[2] = as above; assay type: cell-based; conditions: human, THP-1 cells differentiated into macrophages with PMA, 72 h, MTT; read-out: human THP-1-derived macrophage CC50 ± SE (95% CI)
Procedure: as §1

[3] = Cytotoxicity assay on primary murine macrophages (MTT); assay type: cell-based, Balb/c mice; conditions: Balb/c, mouse, primary peritoneal exudate macrophages, read-out: primary murine macrophage CC50 ± SE (95% CI)
Procedure: as §1

[4] = system: L. infantum intramacrophage amastigotes; experiment: Ex vivo inhibition of intramacrophage amastigote growth; assay type: cell-based, Leishmania infantum; conditions: Leishmania infantum, Macrophage, in Mus musculus, 72 h, murine macrophages infected with L. infantum amastigotes, 72 h, read-out: intramacrophage amastigote EC50 ± SE (95% CI)
Procedure: Balb/c murine macrophages were used to perform ex vivo assay since the parasites infect them more effectively. Macrophages (5 × 10^5/well) were placed on glass coverslips within a 24-well culture plate and incubated with complete RPMI in a 5% CO2 incubator at 37 °C for 4 h to achieve cell adhesion. After this time, L. infantum amastigotes from spleens of previously infected hamsters were added onto the macrophages adhering to the coverslips at the ratio of 10:1 (parasites/macrophages). After 24 h of infection, the noninternalized amastigotes were removed by washes with RPMI. The infected macrophages were incubated with complete RPMI medium (control) or medium containing different concentrations of compounds in a 5% CO2 incubator at 37 °C for 72 h. Then, the coverslips were fixed with methanol, stained with Giemsa 10%, and analyzed by optical microscopy. The percentage of the infected macrophages and the number of amastigotes per infected macrophage were determined by random counting of 100 cells in each coverslip. Infection was judged to be adequate if more than 70% of the macrophages in the untreated control were infected. Activity for each compound was expressed as percentage of parasite burden reduction = infectivity index of treated cells/infectivity index of untreated cells. The infectivity index was calculated as follows: number of infected macrophages × mean number of amastigotes per macrophage / total number of macrophages. Nonlinear regression analysis (Graph-Pad Software Inc., San Diego, USA) was used for curve fitting and calculation of 50% inhibitory concentrations (IC50). The experiments were performed in triplicate, and two independent experiments were conducted.

[5] = system: L. infantum axenic amastigotes; conditions: stated for the control (Euroclone) in the axenic amastigote method; read-out: IC50 of the control drug; cited from earlier work
[6] = system: L. infantum axenic amastigotes; experiment: In vitro inhibition of axenic amastigote growth (MTT); assay type: cell-based, Leishmania infantum; conditions: Leishmania infantum, 72 h, read-out: axenic amastigote EC50 ± SE (95% CI)
Procedure: Axenic amastigote growth inhibition was evaluated using L. infantum strain (MHOM/TN/80/IPT1, WHO international reference strain). Axenic amastigote cultures were obtained as described previously with modifications.[45] Promastigotes were grown in Schneider’s Drosophila medium (SIGMA) containing 10% heat-inactivated fetal calf serum (FCS)(GIBCO-BRL) and 2% gentamicin (50 mg/L)(Sigma) in 25 cm^2 flasks at 22 °C. After 4–5 days, the parasites were adjusted to 1 × 10^6 parasites/mL in axenic medium MAA/20 consisting of modified medium 199 (Gibco BRL) with Hanks’ salts supplemented with 0.5% tryptic soy broth (Sigma), 0.01 mM bathocuproine disulfonic acid, 3 mM L-cysteine, 15 mM D-glucose, 5 mM L-glutamine, 4 mM NaHCO3, 0.023 mM bovine hemin, and 25 mM HEPES to a final pH of 6.5 and supplemented with 20% pretested FCS, and axenic amastigotes were obtained by shifting the incubation conditions: 198 μL of suspension was seeded in triplicate in 96-well flat bottom microplates and incubated at 37 °C, 5% CO2 for 48 h in order to allow the axenization. The amastigote cells were visualized under the light microscope to confirm transformation. Then, 2 μL of the selected compounds with varying concentrations were added: 100, 50, 25, 12.5, 6.25, 3.12, 1.56, 0.8, 0.4, 0.2, 0.1, 0.05 μM. […] Each experiment was conducted in triplicate for each drug concentration, and three independent experiments were performed. To estimate the 50% inhibitory concentration (IC50), the (3-[4.5-dimethylthiazol-2-yl]-2.5-diphenyltetrazolium bromide) (MTT) micromethod was used throughout the experiments with modification. After 72 h of incubation, 30 μL of MTT was added to each well, and the plates were further incubated for 3 h. The absorbance at 550 nm was measured with a 96-well scanner. Antileishmanial activity was expressed as the percentage of inhibition in the number of live parasites compared to that in the control (nontreated parasites). % inhibition was calculated as follows: % growth inhibition = [(absorb cell with drug × 100)/absorb cell control] – 100. Results were analyzed by GraphPad Prism 5.0, dose–response curves were obtained and IC50 deduced (GraphPad Software Inc., San Diego, USA).

C[C@@H]1[C@H](O)[C@@H](C)/C=C/C=C/C=C/C=C/C=C/C=C/C=C/[C@H](O[C@@H]2O[C@H](C)[C@@H](O)[C@H](N)[C@@H]2O)C[C@@H]2O[C@](O)(C[C@@H](O)C[C@@H](O)[C@H](O)CC[C@@H](O)C[C@@H](O)CC(=O)O[C@H]1C)C[C@H](O)[C@H]2C(=O)O [AmpB, Amphotericin B, reference compound]
SI = human THP-1-derived macrophage CC50/axenic amastigote EC50 [1]: 26.4
CC50 at 72 h [2]: 21100 ± 3000 nM
CC50 at 72 h [3]: 16700 ± 2050 nM
EC50 [4]: 540 ± 300 nM
IC50 [5]: 500 nM
EC50 [6]: 800 ± 400 nM
